Among the data in patent US20240335431A1, “1-H-PYRROLO[2,3-c]PYRIDINE COMPOUNDS” (Acerta Pharma B.V., priority 2023, published 2024) are IC50 values, retold here.

In general, IC50 refers to the concentration at which inhibition is half-maximal. Lower therefore signals inhibition by little substance.

Bounds are passed on as bounds.

The target of experiment [1] is hERG (Homo sapiens (Human), UniProt Q12809). The experiment in a line: hERG assay 2, QPatch II 48X, room temperature. Format: cell-based. As to conditions: hERG DUO cell line, top 200 μM. Here is the method: Experiments were performed on the QPatch II 48X (Sophion Biosciences) high throughput patch clamp platform at room temperature and used single hole Qplates. hERG DUO cell line (BSys) was used. The internal patch clamp solution was KF 60 mM, KCl 70 mM, HEPES 10 mM, EGTA 10 mM, and 5 mM Mg ATP (pH7.2). After sealing and whole cell access was gained the external solution (NaCl 140 mM, KCl 4 mM, HEPES 10 mM, CaCl2 2 mM, MgCl2 1 mM, glucose 5 mM (pH 7.4) was applied twice to establish stable baseline currents. An industry standard +40/−40 mV voltage protocol was applied every 15 seconds. All compounds were tested in a 6-point cumulative assay (final DMSO concentration 0.4-2% depending on stock concentration of compounds). Compounds were dispensed from initial 10 mM or 50 mM DMSO stocks after which DMSO dilutions were undertaken with a top concentration of 200 μM tested. Solvent controls were run in all experiments in line with the DMSO % required. Only wells that passed acceptance criteria for this platform were used in this analysis (500 MegaOhm seal resistance and current size >0.2 nA). Analysis was completed in Prism Graphpad to complete a composite IC50, by plotting % inhibition versus log compound concentration and using a log(inhibitor) vs. response—Variable slope.
Sequence of hERG (Q12809 whole entry): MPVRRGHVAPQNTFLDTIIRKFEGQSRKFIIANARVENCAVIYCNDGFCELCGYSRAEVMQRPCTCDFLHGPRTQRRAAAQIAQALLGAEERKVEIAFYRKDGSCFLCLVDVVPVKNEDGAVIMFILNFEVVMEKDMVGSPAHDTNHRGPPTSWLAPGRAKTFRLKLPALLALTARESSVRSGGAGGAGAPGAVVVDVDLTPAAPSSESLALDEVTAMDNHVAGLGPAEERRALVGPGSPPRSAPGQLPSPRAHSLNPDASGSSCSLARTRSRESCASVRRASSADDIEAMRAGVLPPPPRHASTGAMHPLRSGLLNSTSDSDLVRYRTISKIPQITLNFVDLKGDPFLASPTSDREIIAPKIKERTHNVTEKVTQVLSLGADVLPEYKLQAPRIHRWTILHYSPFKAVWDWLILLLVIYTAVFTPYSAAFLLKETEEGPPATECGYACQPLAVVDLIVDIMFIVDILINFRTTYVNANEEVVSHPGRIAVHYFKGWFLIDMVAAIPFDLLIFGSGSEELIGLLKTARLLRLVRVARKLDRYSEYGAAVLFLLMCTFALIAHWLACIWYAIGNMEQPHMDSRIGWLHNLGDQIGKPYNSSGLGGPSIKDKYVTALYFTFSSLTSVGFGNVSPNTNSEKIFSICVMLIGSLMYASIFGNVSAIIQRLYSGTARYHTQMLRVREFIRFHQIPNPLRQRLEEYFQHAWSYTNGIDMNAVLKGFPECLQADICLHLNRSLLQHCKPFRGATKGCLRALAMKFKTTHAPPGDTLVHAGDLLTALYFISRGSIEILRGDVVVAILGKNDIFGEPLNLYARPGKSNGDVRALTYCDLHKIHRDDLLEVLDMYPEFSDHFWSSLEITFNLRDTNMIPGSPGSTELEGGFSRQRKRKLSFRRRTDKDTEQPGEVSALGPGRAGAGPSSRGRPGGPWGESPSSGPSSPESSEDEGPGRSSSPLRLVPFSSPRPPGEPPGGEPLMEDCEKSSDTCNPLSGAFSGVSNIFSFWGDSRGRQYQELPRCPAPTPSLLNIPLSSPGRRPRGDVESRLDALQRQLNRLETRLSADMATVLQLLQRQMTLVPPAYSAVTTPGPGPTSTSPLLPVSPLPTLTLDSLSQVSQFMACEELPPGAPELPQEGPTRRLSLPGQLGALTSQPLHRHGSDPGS

The target of experiment [2] is Menin protein (Homo sapiens, UniProt O00255, DEL460-519). Description: Menin/MLL fluorescence polarization (FP) assay. Format: binding. As to conditions: Menin 2 nM, cRho110-Ahx-MBM1/MBM2 peptide 1 nM. The method, then:
Compounds were tested in a biochemical binding assay using Menin protein at 2 nM (N6his-tev-Menin_4i80, PB-20-1459) and the substrate cRho110-Ahx-MBM1/MBM2 peptide (UbiQ, UbiQ-Q20201030; cRh110-Ahx-[…]-QRVPALLLPPG-NH2) at 1 nM.
384 Low volume black plates (Corning #4514) were used. 5 μL/well compound or 3% DMSO was added at 10-fold serial dilutions in DMSO from 10 μM. 5 μL/well cRho110-Ahx-MBM1/MBM2 peptide or binding buffer (50 mM Tris pH 7.5, 50 mM NaCl, 1 mM TCEP, 0.01% BGG, 0.01% Brij-35) was added to all wells. 5 μL/well Menin protein or binding buffer (50 mM Tris pH 7.5, 50 mM NaCl, 1 mM TCEP, 0.01% BGG, 0.01% Brij-35) was added to all wells. Plates were read on an EnVision plate reader (Perkin Elmer) with excitation at 480 nm and emission at 535 nm P+S, and measured every 5 minutes for 180 minutes.
Data were analyzed in Genedata Screener®. IC50 values were determined by plotting % inhibition versus log compound concentration and using a one site dose response model. Raw data signals were normalized using 1% DMSO no Menin as 100% inhibitor control and 1% DMSO with Menin and no inhibitor as 0% inhibitor control.
On the technique in general: Polarisation of emitted light reports the rotation of a fluorescent probe.

Sequence of Menin protein (O00255 with tags, fused parts or gaps DEL460-519): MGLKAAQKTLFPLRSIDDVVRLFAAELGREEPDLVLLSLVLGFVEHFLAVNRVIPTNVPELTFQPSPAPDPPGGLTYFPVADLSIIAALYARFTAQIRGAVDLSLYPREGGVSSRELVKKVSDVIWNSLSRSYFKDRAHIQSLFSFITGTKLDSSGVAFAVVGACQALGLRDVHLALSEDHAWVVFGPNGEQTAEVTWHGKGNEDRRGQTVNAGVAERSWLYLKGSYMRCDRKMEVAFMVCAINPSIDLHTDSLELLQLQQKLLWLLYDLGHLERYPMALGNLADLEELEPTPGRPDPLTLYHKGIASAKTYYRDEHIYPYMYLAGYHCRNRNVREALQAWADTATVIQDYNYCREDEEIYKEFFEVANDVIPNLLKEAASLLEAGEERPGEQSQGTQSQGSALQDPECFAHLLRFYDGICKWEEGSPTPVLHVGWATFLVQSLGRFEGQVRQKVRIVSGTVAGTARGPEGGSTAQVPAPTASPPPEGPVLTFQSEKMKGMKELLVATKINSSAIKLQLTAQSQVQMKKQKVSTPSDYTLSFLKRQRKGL

In experiment [1], `CC(C)n1nccc1-c1cc(F)ccc1-n1cc(C(=O)C2CCN(C(=O)[C@H]3N[C@@H]4CC[C@H]3C4)CC2)c2ccncc21` [Example 36, (1-((1R,3S,4S)-2-Azabicyclo[2.2.1]heptane-3-carbonyl)piperidin-4-yl)(1-(4-fluoro-2-(1-isopropyl-1H-pyrazol-5-yl)phenyl)-1H-pyrrolo[2,3-c]pyridin-3-yl)methanone] came in with an IC50 of 36.5 µM.
The same measure, in the same setting: the value for `CCN(C(=O)c1cc(F)ccc1-n1c(C)c(C(=O)C2CCN(C(=O)[C@H]3N[C@@H]4CC[C@H]3C4)CC2)c2ccncc21)C(C)C` [Example 46, 2-(3-(1-((1R,3S,4S)-2-Azabicyclo[2.2.1]heptane-3-carbonyl)piperidine-4-carbonyl)-2-methyl-1H-pyrrolo[2,3-c]pyridin-1-yl)-N-ethyl-5-fluoro-N-isopropylbenzamide] was above 200 µM; that for `CC(C)N(C(=O)c1cc(F)ccc1-n1cc(C(=O)C2CN(C(=O)[C@H]3N[C@H]4C[C@@H]3[C@@H](F)C4)C2)c2ccncc21)C(C)C` [Example 7, 5-Fluoro-2-(3-(1-((1S,3S,4S,5S)-5-fluoro-2-azabicyclo[2.2.1]heptane-3-carbonyl)azetidine-3-carbonyl)-1H-pyrrolo[2,3-c]pyridin-1-yl)-N,N-diisopropylbenzamide] was 150 µM; that for `CC(C)c1ncccc1-c1cc(F)ccc1-n1cc(C(=O)C2CCN(C(=O)[C@H]3N[C@@H]4CC[C@H]3C4)CC2)c2ccncc21` [Example 38, (1-((1R,3S,4S)-2-Azabicyclo[2.2.1]heptane-3-carbonyl)piperidin-4-yl)(1-(4-fluoro-2-(2-isopropylpyridin-3-yl)phenyl)-1H-pyrrolo[2,3-c]pyridin-3-yl)methanone] was 26 µM.
For `C[C@@H]1COC[C@@H](C)N1C(=O)c1cc(F)ccc1-n1cc(C(=O)C2CCN(C(=O)[C@H]3N[C@@H]4CC[C@H]3C4)CC2)c2ccncc21` [Example 34, (1-((1R,3S,4S)-2-Azabicyclo[2.2.1]heptane-3-carbonyl)piperidin-4-yl)(1-(2-((3R,5R)-3,5-dimethylmorpholine-4-carbonyl)-4-fluorophenyl)-1H-pyrrolo[2,3-c]pyridin-3-yl)methanone], the half-maximal inhibitory concentration (IC50) in experiment [2] was found to be 0.029 µM.
Same read-out and setting: then `Cc1c(C(=O)[C@@H]2CCN(C(=O)[C@H]3NC[C@@H]4C[C@@H]43)[C@@H](C)C2)c2ccncc2n1-c1ccc(F)cc1C(=O)N(CC(F)(F)F)C(C)C` (single isomer, unassigned) [Example 53-3, 2-(3-((2R*,4S*)-1-((1S,2S,5R)-3-Azabicyclo[3.1.0]hexane-2-carbonyl)-2-methylpiperidine-4-carbonyl)-2-methyl-1H-pyrrolo[2,3-c]pyridin-1-yl)-5-fluoro-N-isopropyl-N-(2,2,2-trifluoroethyl)benzamide], with 0.014 µM.
For the compound `CC(C)c1ncncc1-c1cc(F)ccc1-n1cc(C(=O)C2CCN(C(=O)[C@H]3N[C@@H]4CC[C@H]3C4)CC2)c2ccncc21` [Example 37, (1-((1R,3S,4S)-2-Azabicyclo[2.2.1]heptane-3-carbonyl)piperidin-4-yl)(1-(4-fluoro-2-(4-isopropylpyrimidin-5-yl)phenyl)-1H-pyrrolo[2,3-c]pyridin-3-yl)methanone], in experiment [1], the IC50 is above 200 µM.
As to `CCN(C(=O)c1cc(F)ccc1-n1c(C)c(C(=O)C2CCN(C(=O)[C@@H]3CCC4(CC4)N3)CC2)c2ccncc21)C(C)C` (single isomer, unassigned) [Example 49-2], the midpoint of inhibition in experiment [2], the IC50, lay at 0.029 µM.
On to `CCN(C(=O)c1cc(F)ccc1-n1c(C)c(C(=O)C2CCN(C(=O)[C@@H]3CCC(C)(C)N3)CC2)c2ccncc21)C(C)C` (single isomer, unassigned) [Example 50-2], for which the IC50 in experiment [2] was 0.029 µM.
In the case of `CCN(C(=O)c1cc(F)ccc1-n1cc(C(=O)C2CCN(C(=O)[C@H]3N[C@@H]4CC[C@H]3C4)CC2)c2ccncc21)C(C)C` [Example 31, 2-(3-(1-((1R,3S,4S)-2-Azabicyclo[2.2.1]heptane-3-carbonyl)piperidine-4-carbonyl)-1H-pyrrolo[2,3-c]pyridin-1-yl)-N-ethyl-5-fluoro-N-isopropylbenzamide], the IC50 in experiment [1] is above 200 µM.
